Values after ≈ are worked out from the molar mass of the structure shown. Numbered stars: 1 amine (or outer) side, 2 acyl side, 3 side chain; on linkers, the order of the positions; unused ones are H or OH. Bridge positions count the residues as written; N and C are the ends. Square brackets hold non-standard residues; d marks the D form. Peptide text beside a SMILES is read from it. * marks the point of attachment. hTyr(3S-OH,4S-OH,3'-OSO3H) = N[C@H](C(=O)O)[C@H](O)[C@@H](O)c1ccc(O)c(OS(=O)(=O)O)c1; pTerphenylCO(4''-OnC5H11) = CCCCCOc1ccc(-c2ccc(-c3ccc(C(=O)*)cc3)cc2)cc1; Orn(4R-OH,5R-OH) = O=C([C@H](C[C@@H](O)[C@@H](O)N[*:3])N[*:1])[*:2]; hTyr(3S-OH,4S-OH) = N[C@H](C(=O)O)[C@H](O)[C@@H](O)c1ccc(O)cc1; Pro(3S-OH,4S-Me) = C[C@H]1CN[C@H](C(=O)O)[C@H]1O; X1 = CCCCCOc1ccc(-c2cc(-c3ccc(C(=O)*)cc3)no2)cc1; Gln(3R-OH) = NC(=O)C[C@@H](O)[C@H](N)C(=O)O; Hyp = O=C(O)[C@@H]1C[C@@H](O)CN1
How the values were obtained:
[1] = Inhibition of wild-type 1,3-beta-D-glucan synthase KU80delta from Aspergillus fumigatus assessed as incorporation of [3H]glucose
[2] = Inhibition of 1,3-beta-D-glucan synthase EMFR-S678P/WT mutant from Aspergillus fumigatus assessed as incorporation of [3H]glucose
Aspergillus fumigatus [3] = assay: Antifungal activity against Aspergillus fumigatus expressing fks1 gene EMFR-S678P/WT mutant after 24 to 48 hrs by broth dilution susceptibility test; type: functional; details: read-out: MEC
Aspergillus fumigatus [4] = assay: Ratio of IC50 for Aspergillus fumigatus 1,3-beta-D-glucan synthase EMFR-S678P mutant to IC50 for Aspergillus fumigatus wild-type 1,3-beta-D-glucan synthase KU80delta
Aspergillus fumigatus [5] = assay: Antifungal activity against Aspergillus fumigatus expressing wild-type fks1 gene KU80delta after 24 to 48 hrs by broth dilution susceptibility test; type: functional; details: read-out: MEC
Aspergillus fumigatus [6] = assay: Antifungal activity against Aspergillus fumigatus expressing fks1 gene EMFR-S678P mutant after 24 to 48 hrs by broth dilution susceptibility test; type: functional; details: read-out: MEC
Fksp = Fksp (Neosartorya fumigata (Aspergillus fumigatus), UniProt P87204, S678P); assay: Inhibition of 1,3-beta-D-glucan synthase EMFR-S678P mutant from Aspergillus fumigatus assessed as incorporation of [3H]glucose
Sequence of Fksp (P87204 entry or part of it S678P): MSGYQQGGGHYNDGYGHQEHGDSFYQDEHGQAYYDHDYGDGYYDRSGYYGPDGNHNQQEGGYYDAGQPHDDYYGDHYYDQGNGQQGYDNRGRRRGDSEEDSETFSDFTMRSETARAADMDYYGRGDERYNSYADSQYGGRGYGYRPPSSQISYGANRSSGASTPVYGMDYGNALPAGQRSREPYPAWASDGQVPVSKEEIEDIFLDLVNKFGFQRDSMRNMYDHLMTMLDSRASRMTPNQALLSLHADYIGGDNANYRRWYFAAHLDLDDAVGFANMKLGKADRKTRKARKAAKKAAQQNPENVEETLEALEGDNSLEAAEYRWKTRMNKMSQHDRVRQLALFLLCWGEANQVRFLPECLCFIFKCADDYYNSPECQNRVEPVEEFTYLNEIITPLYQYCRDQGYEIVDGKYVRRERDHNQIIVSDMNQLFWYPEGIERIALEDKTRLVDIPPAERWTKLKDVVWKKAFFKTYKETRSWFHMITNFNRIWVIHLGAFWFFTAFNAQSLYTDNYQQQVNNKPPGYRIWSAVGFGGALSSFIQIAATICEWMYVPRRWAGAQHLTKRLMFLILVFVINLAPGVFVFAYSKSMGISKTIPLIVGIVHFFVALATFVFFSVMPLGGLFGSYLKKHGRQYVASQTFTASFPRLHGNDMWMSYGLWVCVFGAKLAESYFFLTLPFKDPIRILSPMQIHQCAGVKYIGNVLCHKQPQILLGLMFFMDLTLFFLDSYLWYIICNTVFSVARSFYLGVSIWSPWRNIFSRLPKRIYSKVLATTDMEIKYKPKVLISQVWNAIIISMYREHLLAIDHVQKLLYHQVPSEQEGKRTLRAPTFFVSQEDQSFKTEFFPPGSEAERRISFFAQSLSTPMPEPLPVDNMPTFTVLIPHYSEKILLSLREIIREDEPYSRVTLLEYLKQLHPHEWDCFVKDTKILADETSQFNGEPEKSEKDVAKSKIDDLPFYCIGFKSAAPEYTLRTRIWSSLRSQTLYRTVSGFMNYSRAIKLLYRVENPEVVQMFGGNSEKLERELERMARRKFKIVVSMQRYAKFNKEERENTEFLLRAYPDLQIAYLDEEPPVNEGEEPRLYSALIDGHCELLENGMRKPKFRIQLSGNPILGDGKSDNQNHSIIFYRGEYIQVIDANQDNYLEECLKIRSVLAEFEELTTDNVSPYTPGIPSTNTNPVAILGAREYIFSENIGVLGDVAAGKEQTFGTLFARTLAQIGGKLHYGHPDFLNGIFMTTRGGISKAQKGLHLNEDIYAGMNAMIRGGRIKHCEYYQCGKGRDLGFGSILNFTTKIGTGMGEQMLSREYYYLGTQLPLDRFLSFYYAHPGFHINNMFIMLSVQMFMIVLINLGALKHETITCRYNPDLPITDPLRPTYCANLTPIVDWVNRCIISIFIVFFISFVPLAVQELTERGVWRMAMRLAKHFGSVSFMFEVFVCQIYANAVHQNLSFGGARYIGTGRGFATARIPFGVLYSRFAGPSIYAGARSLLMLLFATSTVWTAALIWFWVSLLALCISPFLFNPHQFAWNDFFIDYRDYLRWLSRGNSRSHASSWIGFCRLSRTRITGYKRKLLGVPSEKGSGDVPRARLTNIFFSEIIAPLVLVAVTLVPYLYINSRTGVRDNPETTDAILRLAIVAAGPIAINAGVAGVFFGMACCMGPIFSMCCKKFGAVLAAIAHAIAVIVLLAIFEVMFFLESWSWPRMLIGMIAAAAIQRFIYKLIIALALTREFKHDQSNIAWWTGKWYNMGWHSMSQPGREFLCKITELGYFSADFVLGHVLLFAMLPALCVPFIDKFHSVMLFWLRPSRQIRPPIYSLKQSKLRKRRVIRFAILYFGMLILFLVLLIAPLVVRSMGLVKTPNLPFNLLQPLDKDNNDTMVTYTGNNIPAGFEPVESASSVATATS

SMILES | IC50 [1] | IC50 [2] | minimal effective concentration (Aspergillus fumigatus [3]) | Ratio IC50 (Aspergillus fumigatus [4]) | minimal effective concentration (Aspergillus fumigatus [5]) | minimal effective concentration (Aspergillus fumigatus [6]) | IC50 (Fksp)
CCCCCOc1ccc(-c2ccc(-c3ccc(C(=O)N[C@H]4C[C@@H](O)[C@@H](O)NC(=O)[C@@H]5[C@@H](O)[C@@H](C)CN5C(=O)[C@H]([C@@H](C)O)NC(=O)[C@H]([C@H](O)[C@@H](O)c5ccc(O)cc5)NC(=O)[C@@H]5C[C@@H](O)CN5C(=O)[C@H]([C@@H](C)O)NC4=O)cc3)cc2)cc1 [ANIDULAFUNGIN] ({pTerphenylCO(4''-OnC5H11)}-[Orn(4R-OH,5R-OH)]T[Hyp][hTyr(3S-OH,4S-OH)]T[Pro(3S-OH,4S-Me)]; lactam 1-C) | 0.24 ng/mL (≈ 0.21 nM) | 0.37 ng/mL (≈ 0.324 nM) | 8 µg/mL | 122 | 0.015 µg/mL | 16 µg/mL | 25.6 nM
CC[C@H](C)C[C@H](C)CCCCCCCCC(=O)N[C@H]1C[C@@H](O)[C@@H](NCCN)NC(=O)[C@@H]2[C@@H](O)CCN2C(=O)[C@H]([C@H](O)CCN)NC(=O)[C@H]([C@H](O)[C@@H](O)c2ccc(O)cc2)NC(=O)[C@@H]2C[C@@H](O)CN2C(=O)[C@H]([C@@H](C)O)NC1=O [CASPOFUNGIN] | 0.91 ng/mL (≈ 0.832 nM) | 0.12 ng/mL (≈ 0.11 nM) | > 16 µg/mL | 121 | 0.25 µg/mL | > 16 µg/mL | 100 nM
CCCCCOc1ccc(-c2cc(-c3ccc(C(=O)N[C@H]4C[C@@H](O)[C@@H](O)NC(=O)[C@@H]5[C@@H](O)[C@@H](C)CN5C(=O)[C@H]([C@H](O)CC(N)=O)NC(=O)[C@H]([C@H](O)[C@@H](O)c5ccc(O)c(OS(=O)(=O)O)c5)NC(=O)[C@@H]5C[C@@H](O)CN5C(=O)[C@H]([C@@H](C)O)NC4=O)cc3)no2)cc1 [MICAFUNGIN] (X1-[Orn(4R-OH,5R-OH)]T[Hyp][hTyr(3S-OH,4S-OH,3'-OSO3H)][Gln(3R-OH)][Pro(3S-OH,4S-Me)]; lactam 1-C) | 0.63 ng/mL (≈ 0.496 nM) | 0.5 ng/mL (≈ 0.394 nM) | 8 µg/mL | 20 | 0.015 µg/mL | > 16 µg/mL | 9.93 nM

— ChEMBL document CHEMBL1138536, “A Ser678Pro substitution in Fks1p confers resistance to echinocandin drugs in Aspergillus fumigatus” (Antimicrob Agents Chemother, 2007)
